Experimental data reported in patent US10100019B2.
Where two headings read alike, the source gives them in different places. Blank lines part the entries; values can stand above or below the molecule they belong to.

Columns and labels:
H2228 cells [1] = details: human, 3 days
H3122 cells = experiment: Cytotoxicity in non-small cell lung cancer cell line H3122 (SRB); format: cell-based, human; details: H3122 cells, three days, SRB
Procedure: Particularly, 4,000 H3122 cells containing ALK enzyme were distributed in each well of a 96 well plate together with 100 μl of DMEM (Dulbecco's Modified Eagle's Medium). One day later, the compound of the present invention was added to each well at different concentrations of […]. DMSO (dimethylsulfoxide) was added to the well that was not loaded with the compound by the same amount as the compound. Three days after the addition of the compound, DMEM was eliminated. 10% TCA (trichloroacetic acid) was added to fix the cells. The wells were washed with running water three times and the live cells were stained with SRB solution (1 sulphorodamine B). Then, OD was measured to calculate the population of the live cells.

H2228 cells [2] = experiment: cells; details: Homo sapiens, NCI-H2228, 72 h, read-out: Cytotoxicity H2228 (GI50 μM), H2228 cells, three days, SRB
ALK WT = ALK WT (Homo sapiens (Human), UniProt Q9UM73); details: read-out: ALK WT (IC50 μM); ALK enzyme, HTRF
Procedure: To measure the activity to inhibit ALK, each of the compounds prepared in examples listed in table 2 (2 μl) was loaded in a 384 well plate. Then, each of the compounds was mixed with anaplastic lymphoma kinase (ALK) enzyme (1 μl) and biotin conjugated peptide substrate (2 μl), followed by culture for 15 minutes. ATP solution (5 μl) was added thereto, followed by kinase reaction at room temperature for 30 minutes. […] Upon completion of the reaction, one hour culture was performed, followed by analysis using homogeneous time-resolved fluorescence (HTRF, Cisbio).

Ba/F3 EML4-ALK WT cells = experiment: cells; format: cell-based, rodent; details: Ba/F3 EML4-ALK, read-out: Ba/F3 EML-ALK WT (IC50 μM)
[3] = test system: H3122 induced lung cancer; experiment: In vivo xenograft evaluation for H3122 induced lung cancer; design: species or system nude mice (BALB/c nu/nu); details: H3122 xenograft in nude mice, orally administered q.d.×14, FIG. 1
From the text: The nude mice (BALB/c nu/nu, female) used in this experiment were purchased from Charles River Japan, Inc. and raised and tested under SPF (Specific Pathogen Free) control. The human non-small cell lung cancer cell line H3122 maintained by Korea Research Institute of Chemical Technology was used in this experiment.
The female nude mice adapted to the laboratory were implanted with cancer. Particularly, H3122 cells grown to the appropriate size for passage were cut into 3×3×3 mm^3, which was transplanted (s.c.) under the right side of the nude mouse. When the size of the implanted cancer reached about 200 mm^3, administration of the compound of example 58 was started; this was the first day (day 1). For the control, 20% PEG 400+3% Tween 80 in DDW was orally administered. For the experimental group (7 mice/group), the compound was dissolved in the same solvent of the control, which was orally administered 14 times in total (q.d.×14). The size of the cancer was measured every 2-3 days after the administration using a caliper and the diameters (long diameter (a), short diameter (b)) of the cancer were measured. The size of the cancer (volume, V) was calculated according to mathematical formula 1. Volume (mm^3)=a×b^2/2 Mathematical Formula 1
(In the mathematical formula 1,
a represents the horizontal length of the cancer; and
b represents the vertical short length of the cancer).

ALK WT, sequence (Q9UM73 19-1620): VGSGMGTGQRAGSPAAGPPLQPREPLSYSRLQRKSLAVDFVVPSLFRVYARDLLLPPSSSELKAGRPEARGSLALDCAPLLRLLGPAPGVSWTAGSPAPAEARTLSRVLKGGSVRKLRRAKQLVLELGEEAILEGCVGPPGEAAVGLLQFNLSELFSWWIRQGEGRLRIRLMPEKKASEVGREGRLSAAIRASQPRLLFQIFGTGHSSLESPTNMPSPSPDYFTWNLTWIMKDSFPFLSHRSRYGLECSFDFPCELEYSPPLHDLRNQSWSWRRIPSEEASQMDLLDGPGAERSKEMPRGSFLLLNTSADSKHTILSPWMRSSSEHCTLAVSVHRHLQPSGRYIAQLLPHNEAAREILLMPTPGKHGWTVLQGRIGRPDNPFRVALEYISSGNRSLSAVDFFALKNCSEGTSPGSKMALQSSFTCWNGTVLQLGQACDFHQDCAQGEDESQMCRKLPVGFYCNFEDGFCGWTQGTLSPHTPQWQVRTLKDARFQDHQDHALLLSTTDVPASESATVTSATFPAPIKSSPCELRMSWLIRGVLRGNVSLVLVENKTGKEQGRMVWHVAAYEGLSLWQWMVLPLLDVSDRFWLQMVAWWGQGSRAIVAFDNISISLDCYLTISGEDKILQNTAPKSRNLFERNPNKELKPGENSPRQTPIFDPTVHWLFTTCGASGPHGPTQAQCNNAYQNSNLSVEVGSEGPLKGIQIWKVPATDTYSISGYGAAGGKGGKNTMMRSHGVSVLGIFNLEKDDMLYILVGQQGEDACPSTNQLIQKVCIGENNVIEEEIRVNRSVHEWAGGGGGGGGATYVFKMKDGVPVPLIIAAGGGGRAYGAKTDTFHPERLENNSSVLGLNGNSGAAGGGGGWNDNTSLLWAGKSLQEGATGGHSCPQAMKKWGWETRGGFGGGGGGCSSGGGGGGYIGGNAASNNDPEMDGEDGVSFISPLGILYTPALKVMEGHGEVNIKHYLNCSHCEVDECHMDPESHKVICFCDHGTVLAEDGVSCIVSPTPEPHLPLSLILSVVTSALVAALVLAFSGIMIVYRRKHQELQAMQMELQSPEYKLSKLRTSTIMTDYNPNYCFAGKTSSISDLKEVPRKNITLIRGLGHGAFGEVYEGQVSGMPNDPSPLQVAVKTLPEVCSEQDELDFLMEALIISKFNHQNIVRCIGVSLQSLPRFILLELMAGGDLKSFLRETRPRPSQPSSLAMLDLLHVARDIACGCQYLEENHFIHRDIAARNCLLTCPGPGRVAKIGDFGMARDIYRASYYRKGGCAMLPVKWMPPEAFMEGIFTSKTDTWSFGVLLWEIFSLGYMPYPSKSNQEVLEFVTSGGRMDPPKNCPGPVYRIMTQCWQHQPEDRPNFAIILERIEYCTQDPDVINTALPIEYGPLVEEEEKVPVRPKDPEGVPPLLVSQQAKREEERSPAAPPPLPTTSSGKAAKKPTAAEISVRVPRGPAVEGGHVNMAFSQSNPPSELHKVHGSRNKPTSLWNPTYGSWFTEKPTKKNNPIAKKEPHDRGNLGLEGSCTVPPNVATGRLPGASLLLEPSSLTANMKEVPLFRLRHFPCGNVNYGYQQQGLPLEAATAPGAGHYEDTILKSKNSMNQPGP

- GI50 (H2228 cells [1]): 660 nM
Compound: COC(=O)CCNCCc1ccc(OC)c(Nc2ncc(Cl)c(Nc3ccccc3S(=O)(=O)C(C)C)n2)c1 [Example 24, methyl 3-(3-(5-chloro-4-(2-(isopropylsulfonyl)phenylamino)pyrimidine-2-ylamino)-4-methoxyphenethylamino)propanoate]
- GI50 (H3122 cells): 0.09 µM
- GI50 (H3122 cells; Homo sapiens, NCI-H3122, 72 h): ≤ 0.1 µM
- GI50 (H2228 cells [2]): ≤ 1 µM

- GI50 (H2228 cells [1]): 870 nM
Compound: COc1ccc(CCN(CCO)CCO)cc1Nc1ncc(Cl)c(Nc2ccccc2S(=O)(=O)C(C)C)n1 [Example 39, 2,2′-(3-(5-chloro-4-(2-(isopropylsulfonyl)phenylamino)pyrimidine-2-ylamino)-4-methoxyphenethylazeindiyl)diethanol]
- GI50 (H3122 cells; Homo sapiens, NCI-H3122, 72 h): 0.93 µM
- GI50 (H2228 cells [2]): ≤ 1 µM

Compound: COc1cc(CCN)c(C)cc1Nc1ncc(Cl)c(Nc2ccccc2S(=O)(=O)C(C)C)n1 [Example 55, N2-(4-(2-aminoethyl)-2-methoxy-5-methylphenyl)-5-chloro-N4-(2-(isopropylsulfonyl)phenyl)pyrimidine-2,4-diamine]
- IC50 (ALK WT): 0.0027 µM
- GI50 (H3122 cells; Homo sapiens, NCI-H3122, 72 h): 0.06 µM

Compound: COc1cc(C(C)(C)CN)c(C)cc1Nc1ncc(Cl)c(Nc2ccccc2S(=O)(=O)C(C)C)n1 [Example 56, N2-(4-(1-amino-2-methylpropane-2-yl)-2-methoxy-5-methylphenyl)-5-chloro-N4-(2-(isopropylsulfonyl)phenyl)pyrimidine-2,4-diamine]
- IC50 (ALK WT): 0.0049 µM
- GI50 (H3122 cells; Homo sapiens, NCI-H3122, 72 h): 0.053 µM

Compound: COc1cc(CCN(C)C)c(C)cc1Nc1ncc(Cl)c(Nc2ccccc2S(=O)(=O)C(C)C)n1 [Example 58, 5-chloro-N2-(4-(2-(dimethylamino)ethyl)-2-methoxy-5-methylphenyl)-N4-(2-(isopropylsulfonyl)phenyl)pyrimidine-2,4-diamine]
- IC50 (ALK WT): 0.0014 µM
- IC50 (Ba/F3 EML4-ALK WT cells): 0.01 µM
- GI50 (H3122 cells; Homo sapiens, NCI-H3122, 72 h): 0.013 µM
- size of the cancer (volume) [3]: the effect of inhibiting cancer size was excellent, similar to LDK378

Compound: COc1cc(C(C)(C)CNC=O)c(C)cc1Nc1ncc(Cl)c(Nc2ccccc2S(=O)(=O)C(C)C)n1 [Example 59, N-(2-(4-((5-chloro-4-((2-(isopropylsulfonyl)phenyl)amino)pyrimidine-2-yl)amino)-5-methoxy-2-methylphenyl)-2-methylpropyl)formamide]
- IC50 (ALK WT): 0.0078 µM
- GI50 (H3122 cells; Homo sapiens, NCI-H3122, 72 h): 0.063 µM

Compound: CNCC(C)(C)c1cc(OC)c(Nc2ncc(Cl)c(Nc3ccccc3S(=O)(=O)C(C)C)n2)cc1C [Example 60, 5-chloro-N4-(2-(isopropylsulfonyl)phenyl)-N2-(2-methoxy-5-methyl-4-(2-methyl-1-(methylamino)propane-2-yl)phenyl)pyrimidine-2,4-diamine]
- IC50 (ALK WT): 0.0015 µM
- IC50 (Ba/F3 EML4-ALK WT cells): 0.019 µM
- GI50 (H3122 cells; Homo sapiens, NCI-H3122, 72 h): 0.041 µM

Compound: COc1cc(CCNC=O)c(C)cc1Nc1ncc(Cl)c(Nc2ccccc2S(=O)(=O)C(C)C)n1 [Example 62, N-(4-((5-chloro-4-((2-(isopropylsulfonyl)phenyl)amino)pyrimidine-2-yl)amino)-5-methoxy-2-methylphenethyl)formamide]
- IC50 (ALK WT): 0.004 µM
- GI50 (H3122 cells; Homo sapiens, NCI-H3122, 72 h): 0.068 µM

Compound: CNCCc1cc(OC)c(Nc2ncc(Cl)c(Nc3ccccc3S(=O)(=O)C(C)C)n2)cc1C [Example 63, 5-chloro-N4-(2-(isopropylsulfonyl)phenyl)-N2-(2-methoxy-5-methyl-4-(2-(methylamino)ethyl)phenyl)pyrimidine-2,4-diamine]
- IC50 (ALK WT): 0.0015 µM
- GI50 (H3122 cells; Homo sapiens, NCI-H3122, 72 h): 0.02 µM

Compound: CNC(C)(C)c1cc(OC)c(Nc2ncc(Cl)c(Nc3ccccc3S(=O)(=O)C(C)C)n2)cc1C [Example 64, 5-chloro-N4-(2-(isopropylsulfonyl)phenyl)-N2-(2-methoxy-5-methyl-4-(2-(methylamino)propane-2-yl)phenyl)pyrimidine-2,4-diamine]
- IC50 (ALK WT): 0.0012 µM
- IC50 (Ba/F3 EML4-ALK WT cells): 0.015 µM
- GI50 (H3122 cells; Homo sapiens, NCI-H3122, 72 h): 0.029 µM

Compound: COc1cc(C(C)(C)CN(C)C)c(C)cc1Nc1ncc(Cl)c(Nc2ccccc2S(=O)(=O)C(C)C)n1 [Example 65, 5-chloro-N2-(4-(1-(dimethylamino)-2-methylpropane-2-yl)-2-methoxy-5-methylphenyl)-N4-(2-(isopropylsulfonyl)phenyl)pyrimidine-2,4-diamine]
- IC50 (ALK WT): 0.0022 µM
- IC50 (Ba/F3 EML4-ALK WT cells): 0.014 µM
- GI50 (H3122 cells; Homo sapiens, NCI-H3122, 72 h): 0.026 µM

Compound: COc1cc(C(C)(C)N(C)C)c(C)cc1Nc1ncc(Cl)c(Nc2ccccc2S(=O)(=O)C(C)C)n1 [Example 66, 5-chloro-N2-(4-(2-(dimethylamino)propane-2-yl)-2-methoxy-5-methylphenyl)-N4-(2-(isopropylsulfonyl)phenyl)pyrimidine-2,4-diamine]
- IC50 (ALK WT): 0.0028 µM
- GI50 (H3122 cells; Homo sapiens, NCI-H3122, 72 h): 0.035 µM

Compound: COc1cc(CN(C)C)c(C)cc1Nc1ncc(Cl)c(Nc2ccccc2S(=O)(=O)C(C)C)n1 [Example 70, 5-chloro-N2-(4-((dimethylamino)methyl)-2-methoxy-5-methylphenyl)-N4-(2-(isopropylsulfonyl)phenyl)pyrimidine-2,4-diamine]
- IC50 (Ba/F3 EML4-ALK WT cells): 0.021 µM
- GI50 (H3122 cells; Homo sapiens, NCI-H3122, 72 h): 0.037 µM

Compound: CNCc1cc(OC)c(Nc2ncc(Cl)c(Nc3ccccc3S(=O)(=O)C(C)C)n2)cc1C [Example 72, 5-chloro-N4-(2-(isopropylsulfonyl)phenyl)-N2-(2-methoxy-5-methyl-4-((methylamino)methyl)phenyl)pyrimidine-2,4-diamine]
- IC50 (ALK WT): 0.00174 µM
- IC50 (Ba/F3 EML4-ALK WT cells): 0.015 µM
- GI50 (H3122 cells; Homo sapiens, NCI-H3122, 72 h): 0.025 µM

Compound: C=C(C)c1cc(OCC)c(Nc2ncc(Cl)c(Nc3ccccc3S(=O)(=O)C(C)C)n2)cc1CCN [Example 74, N2-(5-(2-aminoethyl)-2-ethoxy-4-(prop-1-ene-2-yl)phenyl)-5-chloro-N4-(2-(isopropylsulfonyl)phenyl)pyrimidine-2,4-diamine]
- IC50 (Ba/F3 EML4-ALK WT cells): 0.36 µM
- GI50 (H3122 cells; Homo sapiens, NCI-H3122, 72 h): 0.77 µM

Compound: C=C(C)c1cc(OC)c(Nc2ncc(Cl)c(Nc3ccccc3S(=O)(=O)C(C)C)n2)cc1CCN [Example 75, N2-(5-(2-aminoethyl)-2-methoxy-4-(prop-1-ene-2-yl)phenyl)-5-chloro-N4-(2-(isopropylsulfonyl)phenyl)pyrimidine-2,4-diamine]
- IC50 (Ba/F3 EML4-ALK WT cells): 0.11 µM
- GI50 (H3122 cells; Homo sapiens, NCI-H3122, 72 h): 0.23 µM

Compound: Cc1cc(Nc2ncc(Cl)c(Nc3ccccc3S(=O)(=O)C(C)C)n2)c(OC(C)C)cc1C1CCNCC1 [LDK378, Ceritinib, reference compound]
- size of the cancer (volume) [3]: the effect of inhibiting cancer size was excellent, similar to LDK378
